In ChEMBL document CHEMBL5291721, “A preclinical secondary pharmacology resource illuminates target-adverse drug reaction associations of marketed drugs” (Nat Commun, 2023) one finds AC50 data, which are given here for 36 compounds.

Assay [1] addresses T1, Neuropeptide Y receptor type 1 (Homo sapiens, UniProt P25929).
T1 sequence (P25929 whole entry): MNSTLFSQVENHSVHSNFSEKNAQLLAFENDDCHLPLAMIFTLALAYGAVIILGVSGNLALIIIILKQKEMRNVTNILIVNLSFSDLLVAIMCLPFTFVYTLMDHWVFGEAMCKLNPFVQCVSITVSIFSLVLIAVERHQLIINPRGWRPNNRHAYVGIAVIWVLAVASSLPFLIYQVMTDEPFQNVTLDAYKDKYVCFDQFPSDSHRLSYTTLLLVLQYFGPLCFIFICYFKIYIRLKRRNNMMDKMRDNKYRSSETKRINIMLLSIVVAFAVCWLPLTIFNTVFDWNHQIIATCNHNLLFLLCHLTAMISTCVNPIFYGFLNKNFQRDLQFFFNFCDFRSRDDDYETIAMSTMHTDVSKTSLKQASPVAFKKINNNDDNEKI

Assay [2] concerns the target Glutamate receptor ionotropic, NMDA 1 (Rattus norvegicus, UniProt P35439).
For another assay, the target named is T2, Progesterone receptor (Homo sapiens, UniProt P06401).
T2 sequence (P06401 whole entry): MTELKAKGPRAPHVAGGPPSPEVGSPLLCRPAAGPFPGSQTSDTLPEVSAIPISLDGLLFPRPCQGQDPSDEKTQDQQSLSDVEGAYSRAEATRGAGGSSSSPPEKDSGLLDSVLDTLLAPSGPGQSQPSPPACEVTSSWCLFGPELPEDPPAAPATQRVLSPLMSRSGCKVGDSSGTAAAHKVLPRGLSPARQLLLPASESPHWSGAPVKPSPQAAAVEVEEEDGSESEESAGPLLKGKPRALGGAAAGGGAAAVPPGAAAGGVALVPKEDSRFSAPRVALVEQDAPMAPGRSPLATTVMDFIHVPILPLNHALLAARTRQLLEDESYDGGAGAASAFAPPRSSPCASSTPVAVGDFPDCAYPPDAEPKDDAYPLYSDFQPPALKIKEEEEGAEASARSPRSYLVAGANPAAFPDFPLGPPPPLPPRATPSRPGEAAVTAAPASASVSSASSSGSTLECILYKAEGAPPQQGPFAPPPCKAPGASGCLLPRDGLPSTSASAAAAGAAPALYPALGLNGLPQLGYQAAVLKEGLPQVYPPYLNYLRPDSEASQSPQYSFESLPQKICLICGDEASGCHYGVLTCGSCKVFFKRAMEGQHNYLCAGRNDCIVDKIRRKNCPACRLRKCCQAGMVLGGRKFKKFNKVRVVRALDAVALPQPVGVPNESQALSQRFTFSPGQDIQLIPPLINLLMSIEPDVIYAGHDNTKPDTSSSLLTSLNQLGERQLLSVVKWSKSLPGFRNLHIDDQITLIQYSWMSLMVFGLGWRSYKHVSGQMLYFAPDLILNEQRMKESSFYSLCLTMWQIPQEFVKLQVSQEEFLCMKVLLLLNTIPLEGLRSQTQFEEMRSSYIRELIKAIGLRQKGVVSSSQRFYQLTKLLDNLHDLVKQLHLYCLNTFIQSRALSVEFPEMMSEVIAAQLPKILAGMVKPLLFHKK
It counts as functional.

A further assay addresses Cannabinoid receptor 1 (Homo sapiens, UniProt P21554). The class given is functional, cell-based.
Further: assay procedure not described here.

Sequence of Cannabinoid receptor 1 (P21554 whole entry): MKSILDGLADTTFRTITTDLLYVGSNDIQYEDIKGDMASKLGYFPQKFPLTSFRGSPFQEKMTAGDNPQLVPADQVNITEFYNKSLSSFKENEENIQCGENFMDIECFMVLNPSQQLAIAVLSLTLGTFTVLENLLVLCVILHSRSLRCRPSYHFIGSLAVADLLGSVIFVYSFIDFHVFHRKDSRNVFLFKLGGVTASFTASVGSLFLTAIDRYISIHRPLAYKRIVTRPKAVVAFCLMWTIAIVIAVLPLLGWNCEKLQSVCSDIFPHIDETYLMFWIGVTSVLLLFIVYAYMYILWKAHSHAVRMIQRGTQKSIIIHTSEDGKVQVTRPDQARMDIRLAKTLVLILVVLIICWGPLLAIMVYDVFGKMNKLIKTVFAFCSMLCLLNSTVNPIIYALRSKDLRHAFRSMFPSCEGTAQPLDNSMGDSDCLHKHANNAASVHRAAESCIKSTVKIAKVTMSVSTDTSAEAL

A word on the AC50: it is the concentration at which the activity in the assay is half-maximal. As to `CCCCN1C[C@H](O)[C@@H](O)[C@H](O)[C@H]1CO`, the half-maximal activity concentration (AC50) (in assay [1]; in assay [2]; at Progesterone receptor) was > 30 µM in each case.

With `CN(C)CCC=C1c2ccccc2C(C)(C)c2ccccc21`, the AC50 on Cannabinoid receptor 1 and on Progesterone receptor was > 30 µM each time.

Turning to `CCOC(=O)[C@H](CCc1ccccc1)N[C@@H](C)C(=O)N1[C@H](C(=O)O)C[C@@H]2CCC[C@@H]21`, the half-maximal activity concentration (AC50) in assay [1] was > 30 µM; in assay [2] it was > 10 µM; on Cannabinoid receptor 1, > 30 µM.

In the case of `Nc1nc(NC2CC2)c2ncn([C@H]3C=C[C@@H](CO)C3)c2n1` [ABACAVIR], the AC50 (in assay [1]; in assay [2]; on Cannabinoid receptor 1; on Progesterone receptor) was > 30 µM in each case.

Take `CC(=O)NCCCS(=O)(=O)O` [ACAMPROSATE]: the AC50 (in assay [1]; on Cannabinoid receptor 1; at Progesterone receptor) was > 30 µM in each case.

For the compound `CCCSc1ccc2nc(NC(=O)OC)[nH]c2c1` [ALBENDAZOLE], the AC50 (in assay [1]; in assay [2]; at Progesterone receptor) was > 10 µM in each case.

For the compound `COc1cc2nc(N(C)CCCNC(=O)C3CCCO3)nc(N)c2cc1OC` (configuration not stated) [ALFUZOSIN], the AC50 (in assay [1]; in assay [2]; on Cannabinoid receptor 1; at Progesterone receptor) was > 30 µM each time.

Take `CNC(=O)c1ccccc1Sc1ccc2c(/C=C/c3ccccn3)n[nH]c2c1` [AXITINIB]: the AC50 at Cannabinoid receptor 1 and on Progesterone receptor was > 30 µM each time.

In the case of `Cc1ccc(-c2cc(C(F)(F)F)nn2-c2ccc(S(N)(=O)=O)cc2)cc1` [CELECOXIB], the concentration at half-maximal activity (AC50) in assay [1] is > 10 µM; in assay [2], > 10 µM; at Cannabinoid receptor 1, > 30 µM.

Consider `CC1=C(C(=O)O)N2C(=O)[C@@H](NC(=O)[C@H](N)c3ccccc3)[C@H]2SC1` [CEPHALEXIN ANHYDROUS], for which the AC50 is > 30 µM in assay [1], > 10 µM in assay [2] and > 30 µM at Cannabinoid receptor 1.

Take `CN1C(=O)CCS(=O)(=O)C1c1ccc(Cl)cc1` (configuration not stated) [CHLORMEZANONE]: the AC50 (in assay [1]; in assay [2]; at Progesterone receptor) was > 10 µM each time.

In the case of `CN(C)CCC(c1ccc(Cl)cc1)c1ccccn1` (configuration not stated) [CHLORPHENIRAMINE], the concentration at half-maximal activity (AC50) in assay [1] is > 30 µM; in assay [2], > 10 µM; at Cannabinoid receptor 1, > 30 µM.

`CN(C)/N=N/c1[nH]cnc1C(N)=O` [DACARBAZINE]: the AC50 (in assay [1]; in assay [2]; on Progesterone receptor) was > 10 µM throughout.

For `O=C1Nc2ccc(Cl)cc2[C@@](C#CC2CC2)(C(F)(F)F)O1` [EFAVIRENZ], the half-maximal activity concentration (AC50) was > 30 µM in assay [1], > 10 µM in assay [2], > 30 µM at Cannabinoid receptor 1 and 14 µM on Progesterone receptor.

For `C[C@]12CCC(=O)C=C1CC[C@@H]1[C@@H]2[C@@H](O)C[C@@]2(C)[C@H]1CC[C@]2(O)C(=O)CO` [HYDROCORTISONE], the values for the half-maximal activity concentration (AC50) (in assay [1]; in assay [2]; on Cannabinoid receptor 1) were > 30 µM, > 10 µM and > 30 µM, respectively.

Turning to `O=P1(NCCCl)OCCCN1CCCl` (configuration not stated) [IFOSFAMIDE], the half-maximal activity concentration (AC50) (in assay [1]; in assay [2]; at Progesterone receptor) was > 30 µM each time.

In the case of `CCC(C)n1ncn(-c2ccc(N3CCN(c4ccc(OCC5COC(Cn6cncn6)(c6ccc(Cl)cc6Cl)O5)cc4)CC3)cc2)c1=O` (configuration not stated) [ITRACONAZOLE], the AC50 (in assay [1]; in assay [2]; on Cannabinoid receptor 1; on Progesterone receptor) was > 30 µM throughout.

In the case of `c1ccc([C@H]2CN3CCSC3=N2)cc1` [LEVAMISOLE], the AC50 (in assay [2]; at Cannabinoid receptor 1; on Progesterone receptor) was > 30 µM each time.

Take `C[C@H]1CNCCc2ccc(Cl)cc21` [LORCASERIN]: the AC50 on Cannabinoid receptor 1 and at Progesterone receptor was > 30 µM each time.

In the case of `CN1C(C(=O)Nc2ccccn2)=C(O)c2sc(Cl)cc2S1(=O)=O` [LORNOXICAM], the AC50 was > 30 µM in assay [1], > 10 µM in assay [2] and > 30 µM at Cannabinoid receptor 1.

For the compound `C[C@@H](O)[C@H]1C(=O)N2C(C(=O)O)=C(S[C@@H]3CN[C@H](C(=O)N(C)C)C3)[C@H](C)[C@H]12` [MEROPENEM], the AC50 is > 10 µM in assay [1], > 10 µM in assay [2], > 300 µM on Cannabinoid receptor 1 and > 300 µM at Progesterone receptor.

In the case of `CNC1Cc2ccccc2N(C)c2ccccc21` (configuration not stated) [METAPRAMINE], the AC50 on Cannabinoid receptor 1 and at Progesterone receptor was > 30 µM in each case.

For `Clc1ccc(C(c2ccccc2Cl)C(Cl)Cl)cc1` (configuration not stated) [MITOTANE], the AC50 in assay [1] and in assay [2] was > 10 µM throughout.

As for `Cc1nc([N+](=O)[O-])cn1-c1ccc([N+](=O)[O-])cc1` [NITREFAZOLE], the half-maximal activity concentration (AC50) (in assay [1]; in assay [2]; at Cannabinoid receptor 1; at Progesterone receptor) was > 30 µM in each case.

For `COc1ccc(CC(C)(C)NC[C@H](O)c2cc(O)cc3c2OCC(=O)N3)cc1` [OLODATEROL], the AC50 at Cannabinoid receptor 1 and on Progesterone receptor was > 30 µM in each case.

With `CCCN1C[C@H](CSC)C[C@@H]2c3cccc4[nH]cc(c34)C[C@H]21` [PERGOLIDE], the concentration at half-maximal activity (AC50) is > 30 µM in assay [1], > 10 µM in assay [2], > 30 µM at Cannabinoid receptor 1 and > 30 µM at Progesterone receptor.

`C1CCC(C(CC2CCCCN2)C2CCCCC2)CC1` (configuration not stated) [PERHEXILINE]: the AC50 on Cannabinoid receptor 1 and on Progesterone receptor was > 30 µM in each case.

For the compound `c1cnc(N2CCN(Cc3ccc4c(c3)OCO4)CC2)nc1` [PIRIBEDIL], the concentration at half-maximal activity (AC50) at Cannabinoid receptor 1 and on Progesterone receptor was > 30 µM each time.

Consider `COc1ccccc1OCC(O)CN1CCN(CC(=O)Nc2c(C)cccc2C)CC1` (configuration not stated) [RANOLAZINE], for which the AC50 (in assay [1]; in assay [2]; on Progesterone receptor) was > 30 µM in each case.

With `Cc1c(C(=O)NN2CCCCC2)nn(-c2ccc(Cl)cc2Cl)c1-c1ccc(Cl)cc1` [RIMONABANT], the AC50 in assay [1] is > 30 µM; in assay [2] it was > 10 µM; at Progesterone receptor it was > 30 µM.

Consider `Cn1nnc2c(C(N)=O)ncn2c1=O` [TEMOZOLOMIDE], for which the concentration at half-maximal activity (AC50) is > 30 µM in assay [1], > 10 µM in assay [2], > 30 µM on Cannabinoid receptor 1 and > 30 µM on Progesterone receptor.

Take `Clc1ccc2nsnc2c1NC1=NCCN1` [TIZANIDINE]: the figures for the AC50 (in assay [1]; in assay [2]; on Cannabinoid receptor 1) were > 30 µM, > 10 µM and > 30 µM, respectively.

Turning to `O=C(O[C@H]1C[C@H]2CC[C@@H](C1)[N+]21CCCC1)C(O)(c1ccccc1)c1ccccc1` [TROSPIUM], the AC50 (in assay [1]; in assay [2]; on Progesterone receptor) was > 30 µM throughout.

Regarding `N[C@@H]1[C@H]2CN(c3nc4c(cc3F)c(=O)c(C(=O)O)cn4-c3ccc(F)cc3F)C[C@@H]12` [TROVAFLOXACIN], the concentration at half-maximal activity (AC50) on Cannabinoid receptor 1 and on Progesterone receptor was > 30 µM throughout.

`Nc1ccn([C@H]2CC[C@@H](CO)O2)c(=O)n1` [ZALCITABINE]: the AC50 in assay [1] is > 10 µM; in assay [2], > 10 µM; on Cannabinoid receptor 1 it was > 30 µM.

Take `NS(=O)(=O)Cc1noc2ccccc12` [ZONISAMIDE]: the concentration at half-maximal activity (AC50) (in assay [1]; in assay [2]; on Progesterone receptor) was > 10 µM throughout.
